According to US9901602B2, “Ejaculum of animals as medicinal material and uses thereof in medicaments for treatment of diseases such as tumors, depression, etc” (Hui CHENG, priority 2008, dated 2018):

System: S180 tumor cells (mouse sarcoma)
Details: mice sarcoma S180, stomach lavage, 0.3 ml/10 g body weight/day×10
Source text: The mice inoculated by S180 tumor cells (mouse sarcoma) were used as model animals.
In the meantime, non-inoculated mice were feed and used as the native control group.

SMILES: O=P1(N(CCCl)CCCl)NCCCO1 (centres unmarked) [cyclophosphamide]
- Mice body (GPT): 39.2 ± 5.69
- Weight of Tumor (g) (X ± SD): 0.614 ± 0.268 g
